Test results taken from patent US20240124417A1, “COMPOUNDS USEFUL AS IMMUNOMODULATORS” (Bristol-Myers Squibb Company, priority 2019, published 2024).

Molecular target: T1, PD-1/PD-L1 (Homo sapiens, UniProt Q9NZQ7)
T1 construct: TVMV protease site linker (C); made in house; host or cells: HEK293T cells
Test: PD-1/PD-L1 Homogenous Time-Resolved Fluorescence (HTRF) binding assay
Conditions: PD-L1-His 10 nM, PD-1-Ig 20 nM
Method in brief: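 Inhibitors pre-incubated 15 min with PD-L1-His extracellular domain (10 nM final) in dPBS with 0.1% BSA and 0.05% Tween-20, then PD-1-Ig (20 nM final) added for a further 15 min. Read-out by HTRF with europium cryptate anti-Ig (1 nM) and APC anti-His (20 nM). Related pairs: PD-1-Ig/PD-L2-His (20/5 nM), CD80-His/PD-L1-Ig (100/10 nM).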

T1 sequence (Q9NZQ7 18-239): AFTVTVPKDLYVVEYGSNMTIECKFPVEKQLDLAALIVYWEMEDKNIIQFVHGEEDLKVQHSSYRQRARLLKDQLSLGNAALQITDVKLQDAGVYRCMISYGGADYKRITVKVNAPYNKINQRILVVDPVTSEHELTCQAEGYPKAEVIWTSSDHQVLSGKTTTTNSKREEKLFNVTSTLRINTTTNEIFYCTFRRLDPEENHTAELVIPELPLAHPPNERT

SMILES	IC50 [nM]
Cc1c(COc2cc(OCc3cncc(C#N)c3)c(CNCc3ccnn3C)cc2Cl)cccc1-c1cccc(OCC2CCCN(C)C2)c1Cl (stereo not drawn) [Example 2614, 5-((4-chloro-5-((2′-chloro-2-methyl-3′-((1-methylpiperidin-3-yl)methoxy)-[1,1′-biphenyl]-3-yl)methoxy)-2-((((1-methyl-1H-pyrazol-5-yl)methyl)amino)methyl)phenoxy)methyl)nicotinonitrile]	1.7
Cc1c(COc2cc(OCc3cncc(C#N)c3)c(CNCc3nc4ccccc4[nH]3)cc2Cl)cccc1-c1cccc(OCC2CCCN(C)C2)c1Cl (stereo not drawn) [Example 2616, 5-((2-((((1H-benzo[d]imidazol-2-yl)methyl)amino)methyl)-4-chloro-5-((2′-chloro-2-methyl-3′-((1-methylpiperidin-3-yl)methoxy)-[1,1′-biphenyl]-3-yl)methoxy)phenoxy)methyl)nicotinonitrile]	1.9
Cc1c(COc2cc(OCc3cncc(C#N)c3)c(CN(C)Cc3csc(N)n3)cc2Cl)cccc1-c1cccc(OCC2CCCN(C)C2)c1Cl (stereo not drawn) [Example 2617, 5-((2-((((2-aminothiazol-4-yl)methyl)(methyl)amino)methyl)-4-chloro-5-((2′-chloro-2-methyl-3′-((1-methylpiperidin-3-yl)methoxy)-[1,1′-biphenyl]-3-yl)methoxy)phenoxy)methyl)nicotinonitrile]	1.8
Cc1c(COc2cc(OCc3cncc(C#N)c3)c(CNC(C)(C)c3ncon3)cc2Cl)cccc1-c1cccc(OCC2CCCN(C)C2)c1Cl (stereo not drawn) [Example 2620, 5-((2-(((2-(1,2,4-oxadiazol-3-yl)propan-2-yl)amino)methyl)-4-chloro-5-((2′-chloro-2-methyl-3′-((1-methylpiperidin-3-yl)methoxy)-[1,1′-biphenyl]-3-yl)methoxy)phenoxy)methyl)nicotinonitrile]	4.7
Cc1c(COc2cc(OCc3cncc(C#N)c3)c(CNCc3ncc4ccccn34)cc2Cl)cccc1-c1cccc(OCC2CCCN(C)C2)c1Cl (stereo not drawn) [Example 2623, 5-((4-chloro-5-((2′-chloro-2-methyl-3′-((1-methylpiperidin-3-yl)methoxy)-[1,1′-biphenyl]-3-yl)methoxy)-2-(((imidazo[1,5-a]pyridin-3-ylmethyl)amino)methyl)phenoxy)methyl)nicotinonitrile]	6.1
[2H]C([2H])([2H])C(NCc1cc(Cl)c(OCc2cccc(-c3cccc(OCC4CCCN(C)C4)c3Cl)c2C)cc1OCc1cncc(C#N)c1)(c1ncon1)C([2H])([2H])[2H] (stereo not drawn) [Example 2624, 5-((2-(((2-(1,2,4-oxadiazol-3-yl)propan-2-yl-1,1,1,3,3,3-d6)amino)methyl)-4-chloro-5-((2′-chloro-2-methyl-3′-((1-methylpiperidin-3-yl)methoxy)-[1,1′-biphenyl]-3-yl)methoxy)phenoxy)methyl)nicotinonitrile]	3

The remaining compounds from weak to strong by IC50, led by results:

IC50 [nM]	SMILES
35.3	Cc1c(COc2cc(OCc3cncc(C#N)c3)c(CNC3(c4ncon4)CC(OCc4ccccc4)C3)cc2Cl)cccc1-c1cccc(OCC2CCCN(C)C2)c1Cl (stereo not drawn) [Example 2625, 5-((2-(((3-(benzyloxy)-1-(1,2,4-oxadiazol-3-yl)cyclobutyl)amino)methyl)-4-chloro-5-((2′-chloro-2-methyl-3′-((1-methylpiperidin-3-yl)methoxy)-[1,1′-biphenyl]-3-yl)methoxy)phenoxy)methyl)nicotinonitrile]
8.9	Cc1c(COc2cc(OCc3cncc(C#N)c3)c(CNCc3cccnc3Cl)cc2Cl)cccc1-c1cccc(OCC2CCCN(C)C2)c1Cl (stereo not drawn) [Example 2621, 5-((4-chloro-5-((2′-chloro-2-methyl-3′-((1-methylpiperidin-3-yl)methoxy)-[1,1′-biphenyl]-3-yl)methoxy)-2-((((2-chloropyridin-3-yl)methyl)amino)methyl)phenoxy)methyl)nicotinonitrile]
8.3	CCc1csc(CNCc2cc(Cl)c(OCc3cccc(-c4cccc(OCC5CCCN(C)C5)c4Cl)c3C)cc2OCc2cncc(C#N)c2)n1 (stereo not drawn) [Example 2622, 5-((4-chloro-5-((2′-chloro-2-methyl-3′-((1-methylpiperidin-3-yl)methoxy)-[1,1′-biphenyl]-3-yl)methoxy)-2-((((4-ethylthiazol-2-yl)methyl)amino)methyl)phenoxy)methyl)nicotinonitrile]
3.1	Cc1c(COc2cc(OCc3cncc(C#N)c3)c(CNCc3nnc4ccc(C(F)(F)F)cn34)cc2Cl)cccc1-c1cccc(OCC2CCCN(C)C2)c1Cl (stereo not drawn) [Example 2619, 5-((4-chloro-5-((2′-chloro-2-methyl-3′-((1-methylpiperidin-3-yl)methoxy)-[1,1′-biphenyl]-3-yl)methoxy)-2-((((6-(trifluoromethyl)-[1,2,4]triazolo[4,3-a]pyridin-3-yl)methyl)amino)methyl)phenoxy)methyl)nicotinonitrile]
2.2	Cc1c(COc2cc(OCc3cncc(C#N)c3)c(CNCCc3nc4cc(Cl)ccc4[nH]3)cc2Cl)cccc1-c1cccc(OCC2CCCN(C)C2)c1Cl (stereo not drawn) [Example 2613, 5-((4-chloro-2-(((2-(5-chloro-1H-benzo[d]imidazol-2-yl)ethyl)amino)methyl)-5-((2′-chloro-2-methyl-3′-((1-methylpiperidin-3-yl)methoxy)-[1,1′-biphenyl]-3-yl)methoxy)phenoxy)methyl)nicotinonitrile]
0.7	Cc1c(COc2cc(OCc3cncc(C#N)c3)c(CN(C)Cc3nc[nH]n3)cc2Cl)cccc1-c1cccc(OCC2CCCN(C)C2)c1Cl (stereo not drawn) [Example 2618, 5-((2-((((1H-1,2,4-triazol-3-yl)methyl)(methyl)amino)methyl)-4-chloro-5-((2′-chloro-2-methyl-3′-((1-methylpiperidin-3-yl)methoxy)-[1,1′-biphenyl]-3-yl)methoxy)phenoxy)methyl)nicotinonitrile]
